Reference: ChEMBL document CHEMBL1201862, “PubChem BioAssay data set” (2004)
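All cell lines were grown in 96-well plates and treated with compound for 48 hours. GI50 = concentration required for 50% inhibition of growth.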 The source made the active and inactive calls. No stated cut-off is given here; in the data, active = GI50 up to about 1.1 µM and inactive = higher.

Experiments:
Test in all cases: DTP human tumour cell line panel, 48 h
HL-60 = tested on: HL-60
LOX IMVI = tested on: LOX IMVI
SK-MEL-5 = tested on: SK-MEL-5
T47D = tested on: T47D
SN12C = tested on: SN12C
EKVX = tested on: EKVX
KM12 = tested on: KM12
BT-549 = tested on: BT-549
PC-3 = tested on: PC-3
Hs-578T = tested on: Hs-578T
SK-OV-3 = tested on: SK-OV-3
NCI-H226 = tested on: NCI-H226
MDA-MB-231 = tested on: MDA-MB-231
SK-MEL-2 = tested on: SK-MEL-2
SK-MEL-28 = tested on: SK-MEL-28
NCI-H23 = tested on: NCI-H23
M14 = tested on: M14
NCI-H522 = tested on: NCI-H522
COLO 205 = tested on: COLO 205
ACHN = tested on: ACHN

Measured: GI50

COC(=O)[C@H](C)NC(=O)C1(CNC(=O)[C@H](C)NC(=O)OC(C)(C)C)Cc2ccccc2-c2ccccc2C1
inactive: HL-60 19.5 µM | LOX IMVI 3.85 µM | SK-MEL-5 23.3 µM | T47D 21.8 µM | SN12C 17.7 µM | EKVX 19.3 µM | KM12 16.1 µM | BT-549 > 43.6 µM | PC-3 23.8 µM | Hs-578T > 37.2 µM | SK-OV-3 30.5 µM | NCI-H226 24.5 µM | MDA-MB-231 17.9 µM | SK-MEL-2 40 µM | SK-MEL-28 > 47.3 µM | NCI-H23 18 µM | M14 > 45.9 µM | NCI-H522 7.52 µM | COLO 205 22.3 µM | ACHN 22.8 µM

CC(C)C[S+]1C2=C(CC(C)(C)CC2=O)[N-]c2ccccc21 (stereo not given)
inactive: HL-60 > 100 µM | LOX IMVI > 100 µM | SK-MEL-5 > 100 µM | T47D > 100 µM | SN12C > 100 µM | EKVX > 100 µM | KM12 > 100 µM | BT-549 > 100 µM | PC-3 > 100 µM | Hs-578T > 100 µM | SK-OV-3 > 100 µM | NCI-H226 > 100 µM | MDA-MB-231 > 100 µM | SK-MEL-2 > 100 µM | SK-MEL-28 > 100 µM | NCI-H23 > 100 µM | M14 > 100 µM | NCI-H522 > 100 µM | COLO 205 > 100 µM | ACHN > 100 µM

O=C1CCCCC(=O)Nc2ccccc2N1
inactive: HL-60 > 100 µM | LOX IMVI > 100 µM | SK-MEL-5 > 100 µM | T47D > 100 µM | SN12C > 100 µM | EKVX > 100 µM | KM12 > 100 µM | BT-549 > 100 µM | PC-3 > 100 µM | Hs-578T > 100 µM | SK-OV-3 > 100 µM | NCI-H226 > 100 µM | MDA-MB-231 > 100 µM | SK-MEL-2 > 100 µM | SK-MEL-28 > 100 µM | NCI-H23 > 100 µM | M14 > 100 µM | NCI-H522 > 100 µM | COLO 205 > 100 µM | ACHN > 100 µM

Oc1ccc(SCc2cc(O)ccc2O)cc1
inactive: HL-60 2.85 µM | LOX IMVI 16.6 µM | SK-MEL-5 10 µM | T47D 8.39 µM | SN12C 10.2 µM | EKVX 18.9 µM | KM12 17.5 µM | BT-549 3.81 µM | PC-3 6.1 µM | Hs-578T 27.9 µM | SK-OV-3 30.2 µM | NCI-H226 9.42 µM | MDA-MB-231 16.5 µM | SK-MEL-2 14.9 µM | SK-MEL-28 17.7 µM | NCI-H23 28.5 µM | M14 18.4 µM | NCI-H522 1.79 µM | COLO 205 19.2 µM | ACHN 13.7 µM

CCC(=O)/C=C/c1ccccc1
inactive: HL-60 33.4 µM | LOX IMVI 22.8 µM | SK-MEL-5 33 µM | T47D > 100 µM | SN12C 43.2 µM | EKVX > 100 µM | KM12 14.6 µM | BT-549 32.7 µM | PC-3 > 100 µM | Hs-578T 21.8 µM | SK-OV-3 31.3 µM | NCI-H226 > 100 µM | MDA-MB-231 > 100 µM | SK-MEL-2 > 100 µM | SK-MEL-28 54 µM | NCI-H23 47.4 µM | M14 52.8 µM | NCI-H522 > 100 µM | COLO 205 > 100 µM | ACHN 79.1 µM

CCSc1nc(C)nc2c1sc1nc3ccccc3n12
inactive: HL-60 > 28.1 µM | LOX IMVI > 100 µM | SK-MEL-5 > 100 µM | T47D > 100 µM | SN12C > 100 µM | EKVX > 100 µM | KM12 > 68.1 µM | BT-549 > 100 µM | PC-3 > 100 µM | Hs-578T 24.2 µM | SK-OV-3 > 100 µM | NCI-H226 > 100 µM | MDA-MB-231 > 100 µM | SK-MEL-2 > 100 µM | SK-MEL-28 > 100 µM | NCI-H23 > 100 µM | M14 > 100 µM | NCI-H522 > 100 µM | COLO 205 > 100 µM | ACHN > 100 µM

c1ccc2c(c1)-c1ccccc1C2N1CC2CCC(CC2)C1
inactive: HL-60 2.92 µM | LOX IMVI 18.7 µM | SK-MEL-5 17.1 µM | T47D 20.7 µM | SN12C 23.9 µM | EKVX 21.7 µM | KM12 19 µM | BT-549 16.8 µM | PC-3 27.6 µM | Hs-578T 3.37 µM | SK-OV-3 44.1 µM | NCI-H226 19.5 µM | MDA-MB-231 18.8 µM | SK-MEL-2 16 µM | SK-MEL-28 33.3 µM | NCI-H23 17.3 µM | M14 26.7 µM | NCI-H522 10.5 µM | COLO 205 20.5 µM | ACHN 23 µM

O=S(=O)(Nc1nc2ccccc2nc1Nc1ccc2ccccc2c1)c1ccccc1
inactive: HL-60 5.77 µM | LOX IMVI 17.8 µM | SK-MEL-5 10.9 µM | T47D 5.68 µM | SN12C 10.4 µM | EKVX 11.7 µM | KM12 6 µM | BT-549 15.8 µM | PC-3 3.3 µM | Hs-578T 14.3 µM | SK-OV-3 7.78 µM | NCI-H226 16.7 µM | MDA-MB-231 26.4 µM | SK-MEL-2 3.19 µM | SK-MEL-28 12.1 µM | NCI-H23 6.89 µM | M14 9.04 µM | NCI-H522 5.15 µM | COLO 205 12.4 µM | ACHN 17.3 µM

Cc1cc(S(=O)(=O)Nc2nnc3c(Cl)cc(C(F)(F)F)cn23)c(S)cc1Cl
inactive: HL-60 > 100 µM | LOX IMVI > 86.3 µM | SK-MEL-5 22.8 µM | T47D 37.2 µM | SN12C > 96.6 µM | EKVX 75 µM | KM12 39.3 µM | BT-549 25.9 µM | PC-3 69.3 µM | Hs-578T > 64.9 µM | SK-OV-3 44.9 µM | NCI-H226 23.3 µM | MDA-MB-231 > 59.3 µM | SK-MEL-2 48.4 µM | SK-MEL-28 > 100 µM | NCI-H23 95.1 µM | M14 > 83.8 µM | NCI-H522 63.5 µM | COLO 205 > 68.4 µM | ACHN > 76.7 µM

CC1(C)S[C@@H]2[C@H](NC(=O)C3(N)CCCCC3)C(=O)N2[C@H]1C(=O)O [CYCLACILLIN]
inactive: HL-60 > 100 µM | LOX IMVI > 100 µM | SK-MEL-5 > 100 µM | T47D > 100 µM | SN12C > 100 µM | EKVX > 100 µM | KM12 > 100 µM | BT-549 > 100 µM | PC-3 > 100 µM | Hs-578T > 100 µM | SK-OV-3 > 100 µM | NCI-H226 > 100 µM | MDA-MB-231 > 100 µM | SK-MEL-2 > 100 µM | SK-MEL-28 > 100 µM | NCI-H23 > 100 µM | M14 > 100 µM | NCI-H522 > 100 µM | COLO 205 > 100 µM | ACHN > 100 µM
